Data reported in article PMC8907207, “Multiplex quantification of C-terminal alpha-1-antitrypsin peptides provides a novel approach for characterizing systemic inflammation” (Scientific Reports, 2022).
Ends that are not written are not given here.

Experiments:
[1] = Freeze/thaw stability of QC samples; type: in vitro ADME; settings: QC in 70 g/L albumin in PBS, two cycles of freezing and thawing, LC-MS/MS
Protocol: (§1) Stability of analytes in processed samples was determined at six independent days for a time span of 20 h in the autosampler. Deviations of standing samples to freshly measured samples were below 19% at the LLOQ and below 9% for other QC levels for each analyte, respectively (Additional file 4). Stability of analytes in biological matrix was determined by consecutive cycles of freezing and thawing as well as extended intervals at room temperature from thawing to processing (approximately one hour).
(§2) Lyophilized authentic peptide standards were dissolved and diluted in a 70 g/L Albumin (from human serum, lyophilized, ≥ 99%, Sigma-Aldrich) in PBS (Sigma-Aldrich, St. Louis, MO, USA) solution. Internal standards C37^IS and C42^IS were dissolved in Milli-Q water (Millipore, Brussels, Belgium) containing 0.1% (v/v) formic acid (≥ 95%, Sigma-Aldrich) whereas C22^IS was only dissolved in ultrapure water. Mixtures of CAAPs used as calibration standards (calibrants) and quality control samples (QCs) were prepared as stock solution to a final concentration of 14 µM, respectively, (expect C40^SNP which was 5 µM) with subsequent serial dilutions. Calibrants and QCs were obtained from separate serial dilutions. Internal standard solution was prepared by adding equal volumes of each IS yielding a final concentration of 0.8 µM, respectively. All samples used for method development and validation were prepared and stored in 0.5 mL Protein LoBind Tubes (Eppendorf AG, Hamburg, Germany) in aliquots at − 80 °C until use.
(§3) Working range of calibrants was defined based on CAAPs detected in samples from healthy donors (set to approximate lower limit of quantification) and in samples from septic patients (set to middle to high calibration range) which were re-analyzed from a previously work[46]. Nine calibrants were used in total ranging from 0.01 µM to 1.5 µM thereby covering more than two orders of magnitude in concentration. Linearity was assessed determining mean linear regression coefficients of each calibration curve from 0.01 to 1.5 µM in eight independent analytical runs. However, respective LLOQs (lower limit of quantification) and ULOQs (upper limit of quantification) were defined individually based on natural occurrence (see above) and results from validation parameter directly affected individual working ranges (carry-over, specificity). Four QC samples were prepared and measured in total (QC1, QC2, QC3, and QC4) to cover the entire range of calibration. However, three QCs for each of the respective analytes were used for method validation. Carry-over was determined measuring pure albumin solutions prepared without internal standards (but equal amount and concentration of water/formic acid solution as regular internal standard solution, “blank albumin sample”) directly after the respective highest calibrants. Peak areas were compared to peak areas from respective LLOQ samples (prepared with regular internal standard solution). Specificity was assessed using single compounds at respective highest calibrant level which were prepared and calculated as described for carry-over. The specificity of analytes towards internal standards was determined using pure albumin solution with internal standard (“zero albumin sample”). Accuracy and precision was determined by back-calculated concentrations from repeated measurements of the same QC samples during one analytical run (within-run repeatability, n = 5) and from freshly prepared samples during five independent analytical runs (between-run, n = 5). Due to the unavailability of analyte-free biological matrix, selectivity of analytes were assessed in pure albumin solution containing internal standards. Matrix effects were determined calculating recovery rates and precision of each compound in human blood samples. Direct comparison between different anticoagulants (EDTA, lithium-heparin) and serum was performed using whole blood from the same human donor. […]

[2] = Benchtop stability of QC samples at room temperature; type: in vitro ADME; settings: QC in 70 g/L albumin in PBS, 60 min. at room temperature, LC-MS/MS
Protocol: as §1, §2, §3

[3] = QC2 (0.025 µM; C40^SNP see Table 1)
[4] = QC3 (0.3 µM; C40^SNP 0.1073 µM)

freeze/ thaw stability, accuracy (mean of n=3) [1, 3] [%] | freeze/ thaw stability, deviation from freshly processed QCs (mean of n=3) [1, 3] [%] | freeze/ thaw stability, accuracy (mean of n=3) [1, 4] [%] | freeze/ thaw stability, deviation from freshly processed QCs (mean of n=3) [1, 4] [%] | benchtop stability, accuracy (mean of n=3) [2, 3] [%] | benchtop stability, deviation from freshly processed QCs (mean of n=3) [2, 3] [%] | benchtop stability, accuracy (mean of n=3) [2, 4] [%] | benchtop stability, deviation from freshly processed QCs (mean of n=3) [2, 4] [%] | Sequence
105 | -4 | 107 | -3 | 109 | 1 | 107 | -3 | FLEAIPMSIPPEVKFNKPFVFLMIDQNTKSPLFMGKVVNPTQK [C43^SNP]
107 | 5 | 99 | -4 | 109 | 6 | 101 | -3 | AIPMSIPPEVKFNKPFVFLMIEQNTKSPLFMGKVVNPTQK [C40^WT]
114 | 9 | 103 | 1 | 106 | 1 | 101 | -1 | MSIPPEVKFNKPFVFLMIEQNTKSPLFMGKVVNPTQK [C37^WT]
103 | 2 | 97 | 0 | 104 | 2 | 100 | 3 | LMIDQNTKSPLFMGKVVNPTQK [C22^SNP]
105 | -1 | 102 | -2 | 102 | -4 | 100 | -4 | IPMSIPPEVKFNKPFVFLMIDQNTKSPLFMGKVVNPTQK [C39^SNP]
105 | 2 | 100 | -4 | 104 | 1 | 101 | -3 | LEAIPMSIPPEVKFNKPFVFLMIDQNTKSPLFMGKVVNPTQK [C42^SNP]
109 | -3 | 112 | -2 | 114 | 1 | 112 | -2 | AMFLEAIPMSIPPEVKFNKPFVFLMIDQNTKSPLFMGKVVNPTQK [C45^SNP]
104 | 2 | 99 | -2 | 103 | 1 | 102 | 1 | LMIEQNTKSPLFMGKVVNPTQK [C22^WT]
104 | 2 | 100 | -4 | 102 | 1 | 101 | -3 | LEAIPMSIPPEVKFNKPFVFLMIEQNTKSPLFMGKVVNPTQK [C42^WT]
103 | -3 | 100 | -3 | 104 | -1 | 101 | -2 | AIPMSIPPEVKFNKPFVFLMIDQNTKSPLFMGKVVNPTQK [C40^SNP]
104 | 0 | 98 | -1 | 103 | 0 | 99 | -1 | MSIPPEVKFNKPFVFLMIDQNTKSPLFMGKVVNPTQK [C37^SNP]
109 | -6 | 115 | -2 | 114 | -2 | 115 | -2 | MFLEAIPMSIPPEVKFNKPFVFLMIDQNTKSPLFMGKVVNPTQK [C44^SNP]
108 | -6 | 117 | -2 | 116 | 1 | 117 | -3 | AMFLEAIPMSIPPEVKFNKPFVFLMIEQNTKSPLFMGKVVNPTQK [C45^WT]
106 | 4 | 98 | -1 | 106 | 4 | 98 | -1 | SIPPEVKFNKPFVFLMIEQNTKSPLFMGKVVNPTQK [C36^WT]
103 | -2 | 108 | -2 | 110 | 4 | 109 | -1 | FLEAIPMSIPPEVKFNKPFVFLMIEQNTKSPLFMGKVVNPTQK [C43^WT]
107 | 8 | 101 | 2 | 106 | 8 | 98 | -1 | IPMSIPPEVKFNKPFVFLMIEQNTKSPLFMGKVVNPTQK [C39^WT]
